Patent US20100112089A1, “PEPTIDE COMPOUND AND USE THEREOF” (Takeda Pharmaceutical Company Limited, priority 2008, published 2010)

Key:
[1] = test system: NCI-H226 subcutaneous xenograft tumor; experiment: Subcutaneous tumor xenograft model; format: in vivo, SCID mice; settings: cisplatin 9 mg/kg
Procedure: A suspension of NCI-H226 cells was injected subcutaneously into the flanks of six weeks old male severe […] combined immune deficiency (SCID) mice (Charles River Lab., Wilmington, Mass.). The size of tumors was measured three times a week using a caliper. The volumes were calculated using the following formula: volume (cm^3)=[width^2 (mm)×length (mm)]/2000. The relative tumor volume was expressed as the Vt/V0 index, where Vt is the tumor volume on a measured day, and V0 is the volume of the same tumor just before the first treatment. Mean relative tumor sizes with standard error of mean, SEM, were plotted. Body weight was measured three times weekly from the first treatment, and the weight change was expressed as a percentage of the initial weight. Animals were housed in accordance with guidelines from the Association for the Assessment and Accreditation of Laboratory Animal Care International, and the protocols were approved by the institutional animal care committee of CanBas Co., Ltd.
The statistical significance of the differences of the relative tumor volume between groups was determined by Student's t tests.

NCI-H226 cells [2] = experiment: Confocal immunofluorescence analysis of damage foci; format: cell-based; settings: bleomycin at 0.4 μg/ml alone
Procedure: The cells were fixed in ice-cold methanol at −20° C. for 20 min, and blocked with PBS containing 5% BSA for 45 min. Cells were then incubated with anti-γ-H2AX, anti-ATM p-Ser1981, anti-DNA-PKcs p-Thr2609, anti-NBS1 p-Ser343, or anti-SMC1 p-Ser957 antibodies overnight at 4° C., followed by incubation with Alexa 594-conjugated secondary antibody (Invitrogen, Carlsbad, Calif.) for 1 hr at room temperature in the dark. Cell nuclei were stained using Hoechst 33342. Fluorescence was visualized and analyzed using Becton Dickinson Pathway450. The intensity of the nuclei and number of foci was assessed by ATTOVision and IPLab software (Becton Dickinson), respectively.

NCI-H226 cells [3] = format: cell-based; settings: bleomycin 2 μg/ml alone
Procedure: The cells were harvested and lysed in a lysis buffer [50 mM Tris-HCl (pH 8.0), 5 mM EDTA (pH 8.0), 100 mM NaCl, 0.5% NP-40, 2 mM DTT, 50 mM NaF, 1 mM Na3VO4, 1 μM microcystin, proteinase inhibitors cocktail (Roche, Mannheim, Germany)] for 30 min on ice and the lysates were clarified by centrifugation at 15,000 rpm for 20 min at 4° C. Protein concentration of the supernatants was evaluated using a detergent-compatible protein assay kit (Bio-Rad, Hercules, Calif.) according to the manufacturer's instructions. Whole cell lysates (60 μg) were run on a 10-12% SDS-PAGE gel, and transferred onto polyvinylidene difluoride (PVDF) membranes (Bio-Rad). The membrane was blocked at room temperature for 1 hr in TBST (0.1% Tween 20 in TBS) containing 2% ECL Advance Blocking Reagent (GE healthcare, Waukesha, Wis.) and incubated with primary antibody overnight at 4° C. The membrane was incubated with anti-peroxidase conjugated secondary antibody (Cell Signaling) for 1 hr at room temperature and analyzed using the enhanced chemiluminescence detection system (ECL Advance Western Blotting Detection Kit, GE healthcare).

Compound	tumor growth [1]	foci formation (γ-H2AX, NBS1 p-Ser343, ATM p-Ser1981, SMC1 p-Ser957) (NCI-H226 cells [2])	phosphorylation of ATM (Ser1981), H2AX, CHK1 (Ser317), CHK2 (Thr68) (NCI-H226 cells [3])
N.N.[Cl][Pt][Cl] [cisplatin]	suppressed tumor growth		
bleomycin		only marginally increased foci formation	induced phosphorylation
